Measured values reported in US11345762B2, “Method for preparing liquid medium composition, and preparation device and kit therefor” (NISSAN CHEMICAL INDUSTRIES, LTD., priority 2015, dated 2022).

Key:
[1] = system: Human lung cancer cell line A549; test: A549 cell proliferation suppressive test with anticancer agents in low adhesion plate (ATP, CellTiter-Glo); type: cell-based
Description: Deacylated gellan gum (KELCOGEL CG-LA, manufactured by Sansho Co., Ltd.) was suspended in ultra pure water (Milli-Q water) to 0.3% (w/v) or 0.75% (w/v), dissolved by stirring with heating at 90° C., and this aqueous solution was autoclave sterilized at 121° C. for 20 min. Using 0.3% solution, a medium composition was prepared by adding deacylated gellan gum (final concentration 0.015% (w/v)) to DMEM medium (manufactured by WAKO) containing 10% (v/v) fetal bovine serum. Fetal bovine serum was added at 10% (v/v) to a medium composition prepared in Example 7.
Human lung cancer cell line A549 (manufactured by DS PHARMA BIOMEDICAL) was seeded in the above-mentioned medium composition added with deacylated gellan gum (conventional method) or the medium composition of Example 7 at 14800 cells/mL, and dispensed to the wells of a 96 well flat bottom ultra-low adhesive surface microplate (Corning Incorporated manufactured by, #3474) at 135 μL per […]. As a negative control, A549 cells were suspended in the above-mentioned medium free of deacylated gellan gum and dispensed. Each plate was cultured in a static state in a CO2 incubator (37° C., 5% CO2). On day 1 of culture, medium compositions (conventional method and the production method of the present invention) containing each anticancer agent at 10-fold concentration and deacylated gellan gum (final concentration 0.015% (w/v)), and a medium composition containing each anticancer agent alone at 10-fold concentration (non-addition method), 15 μL each, was added to a final concentration of 0.001 to 30 μM, and culture was continued for 7 days. As the anticancer agent, Trametinib (manufactured by Santa Cruz, MEK inhibitor) and MK-2206 (manufactured by Santa Cruz, Akt inhibitor) were used. ATP reagent (150 μL, CellTiter-Glo™ Luminescent Cell Viability Assay, manufactured by Promega) was added to the culture media on days 5 and 8 and suspended therein, stood for about 10 min at room temperature, and the luminescence intensity (RLU value) was measured by FlexStation3 (manufactured by Molecular Devices), from which the luminescence with the medium alone was subtracted to measure the number of viable cells.

[2] = system: Human pancreatic cancer cell line Panc02,03; test: Proliferation action on Panc02,03 cell stimulated by each growth factor (ATP, CellTiter-Glo); type: cell-based
[3] = A549, day 4 of static culture, 0.03 μM, conventional method
[4] = A549, day 4 of static culture, 0.03 μM, non-addition method
[5] = A549, day 4 of static culture, 0.03 μM, production method of present invention
[6] = A549, day 7 of static culture, 0.03 μM, conventional method
[7] = A549, day 7 of static culture, 0.03 μM, non-addition method
[8] = A549, day 7 of static culture, 0.03 μM, production method of present invention
[9] = A549, day 4 of static culture, 0.001 μM, conventional method
[10] = A549, day 4 of static culture, 0.001 μM, non-addition method
[11] = A549, day 4 of static culture, 0.001 μM, production method of present invention
[12] = A549, day 4 of static culture, 0.01 μM, conventional method
[13] = A549, day 4 of static culture, 0.01 μM, non-addition method
[14] = A549, day 4 of static culture, 0.01 μM, production method of present invention
[15] = A549, day 7 of static culture, 0.001 μM, conventional method
[16] = A549, day 7 of static culture, 0.001 μM, non-addition method
[17] = A549, day 7 of static culture, 0.001 μM, production method of present invention
[18] = A549, day 7 of static culture, 0.01 μM, conventional method
[19] = A549, day 7 of static culture, 0.01 μM, non-addition method
[20] = A549, day 7 of static culture, 0.01 μM, production method of present invention

Molecule: NC1(c2ccc(-c3nc4ccn5c(=O)[nH]nc5c4cc3-c3ccccc3)cc2)CCC1 [MK-2206]
- % control of RLU value (ATP measurement, luminescence intensity) [1, 3]: 100 % Control
- % control of RLU value (ATP measurement, luminescence intensity) [1, 4]: 108 % Control
- % control of RLU value (ATP measurement, luminescence intensity) [1, 5]: 85 % Control
- % control of RLU value (ATP measurement, luminescence intensity) ([1]; A549, day 4 of static culture, 0.1 μM, conventional method): 91 % Control
- % control of RLU value (ATP measurement, luminescence intensity) ([1]; A549, day 4 of static culture, 0.1 μM, non-addition method): 99 % Control
- % control of RLU value (ATP measurement, luminescence intensity) ([1]; A549, day 4 of static culture, 0.1 μM, production method of present invention): 74 % Control
- % control of RLU value (ATP measurement, luminescence intensity) ([1]; A549, day 4 of static culture, 0.3 μM, conventional method): 71 % Control
- % control of RLU value (ATP measurement, luminescence intensity) ([1]; A549, day 4 of static culture, 0.3 μM, non-addition method): 93 % Control
- % control of RLU value (ATP measurement, luminescence intensity) ([1]; A549, day 4 of static culture, 0.3 μM, production method of present invention): 60 % Control
- % control of RLU value (ATP measurement, luminescence intensity) ([1]; A549, day 4 of static culture, 1 μM, conventional method): 50 % Control
- % control of RLU value (ATP measurement, luminescence intensity) ([1]; A549, day 4 of static culture, 1 μM, non-addition method): 78 % Control
- % control of RLU value (ATP measurement, luminescence intensity) ([1]; A549, day 4 of static culture, 1 μM, production method of present invention): 43 % Control
- % control of RLU value (ATP measurement, luminescence intensity) ([1]; A549, day 4 of static culture, 3 μM, conventional method): 38 % Control
- % control of RLU value (ATP measurement, luminescence intensity) ([1]; A549, day 4 of static culture, 3 μM, non-addition method): 62 % Control
- % control of RLU value (ATP measurement, luminescence intensity) ([1]; A549, day 4 of static culture, 3 μM, production method of present invention): 33 % Control
- % control of RLU value (ATP measurement, luminescence intensity) [1, 6]: 92 % Control
- % control of RLU value (ATP measurement, luminescence intensity) [1, 7]: 124 % Control
- % control of RLU value (ATP measurement, luminescence intensity) [1, 8]: 80 % Control
- % control of RLU value (ATP measurement, luminescence intensity) ([1]; A549, day 7 of static culture, 0.1 μM, conventional method): 83 % Control
- % control of RLU value (ATP measurement, luminescence intensity) ([1]; A549, day 7 of static culture, 0.1 μM, non-addition method): 101 % Control
- % control of RLU value (ATP measurement, luminescence intensity) ([1]; A549, day 7 of static culture, 0.1 μM, production method of present invention): 69 % Control
- % control of RLU value (ATP measurement, luminescence intensity) ([1]; A549, day 7 of static culture, 0.3 μM, conventional method): 63 % Control
- % control of RLU value (ATP measurement, luminescence intensity) ([1]; A549, day 7 of static culture, 0.3 μM, non-addition method): 103 % Control
- % control of RLU value (ATP measurement, luminescence intensity) ([1]; A549, day 7 of static culture, 0.3 μM, production method of present invention): 54 % Control
- % control of RLU value (ATP measurement, luminescence intensity) ([1]; A549, day 7 of static culture, 1 μM, conventional method): 38 % Control
- % control of RLU value (ATP measurement, luminescence intensity) ([1]; A549, day 7 of static culture, 1 μM, non-addition method): 85 % Control
- % control of RLU value (ATP measurement, luminescence intensity) ([1]; A549, day 7 of static culture, 1 μM, production method of present invention): 34 % Control
- % control of RLU value (ATP measurement, luminescence intensity) ([1]; A549, day 7 of static culture, 3 μM, conventional method): 26 % Control
- % control of RLU value (ATP measurement, luminescence intensity) ([1]; A549, day 7 of static culture, 3 μM, non-addition method): 76 % Control
- % control of RLU value (ATP measurement, luminescence intensity) ([1]; A549, day 7 of static culture, 3 μM, production method of present invention): 21 % Control
- efficacy on A549 cell proliferation in the medium composition of the present invention (in words) ([1]; A549, medium composition of the present invention): strong efficacy

Molecule: CC(=O)O[C@H]1C(=O)[C@@]2(C)[C@H]([C@H](OC(=O)c3ccccc3)[C@]3(O)C[C@H](OC(=O)[C@H](O)[C@@H](NC(=O)c4ccccc4)c4ccccc4)C(C)=C1C3(C)C)[C@]1(OC(C)=O)CO[C@@H]1C[C@@H]2O [Paclitaxel]
- % control of RLU value (ATP measurement, luminescence intensity) [1, 9]: 98 % Control
- % control of RLU value (ATP measurement, luminescence intensity) [1, 10]: 112 % Control
- % control of RLU value (ATP measurement, luminescence intensity) [1, 11]: 91 % Control
- % control of RLU value (ATP measurement, luminescence intensity) [1, 12]: 31 % Control
- % control of RLU value (ATP measurement, luminescence intensity) [1, 13]: 57 % Control
- % control of RLU value (ATP measurement, luminescence intensity) [1, 14]: 32 % Control
- % control of RLU value (ATP measurement, luminescence intensity) [1, 15]: 90 % Control
- % control of RLU value (ATP measurement, luminescence intensity) [1, 16]: 116 % Control
- % control of RLU value (ATP measurement, luminescence intensity) [1, 17]: 84 % Control
- % control of RLU value (ATP measurement, luminescence intensity) [1, 18]: 12 % Control
- % control of RLU value (ATP measurement, luminescence intensity) [1, 19]: 49 % Control
- % control of RLU value (ATP measurement, luminescence intensity) [1, 20]: 12 % Control

Molecule: CC(=O)Nc1cccc(-n2c(=O)n(C3CC3)c(=O)c3c(Nc4ccc(I)cc4F)n(C)c(=O)c(C)c32)c1 [Trametinib]
- % control of RLU value (ATP measurement, luminescence intensity) [1, 9]: 85 % Control
- % control of RLU value (ATP measurement, luminescence intensity) [1, 10]: 76 % Control
- % control of RLU value (ATP measurement, luminescence intensity) [1, 11]: 82 % Control
- % control of RLU value (ATP measurement, luminescence intensity) ([1]; A549, day 4 of static culture, 0.003 μM, conventional method): 65 % Control
- % control of RLU value (ATP measurement, luminescence intensity) ([1]; A549, day 4 of static culture, 0.003 μM, non-addition method): 57 % Control
- % control of RLU value (ATP measurement, luminescence intensity) ([1]; A549, day 4 of static culture, 0.003 μM, production method of present invention): 60 % Control
- % control of RLU value (ATP measurement, luminescence intensity) [1, 12]: 61 % Control
- % control of RLU value (ATP measurement, luminescence intensity) [1, 13]: 65 % Control
- % control of RLU value (ATP measurement, luminescence intensity) [1, 14]: 57 % Control
- % control of RLU value (ATP measurement, luminescence intensity) [1, 3]: 40 % Control
- % control of RLU value (ATP measurement, luminescence intensity) [1, 4]: 46 % Control
- % control of RLU value (ATP measurement, luminescence intensity) [1, 5]: 41 % Control
- % control of RLU value (ATP measurement, luminescence intensity) [1, 15]: 81 % Control
- % control of RLU value (ATP measurement, luminescence intensity) [1, 16]: 76 % Control
- % control of RLU value (ATP measurement, luminescence intensity) [1, 17]: 76 % Control
- % control of RLU value (ATP measurement, luminescence intensity) ([1]; A549, day 7 of static culture, 0.003 μM, conventional method): 52 % Control
- % control of RLU value (ATP measurement, luminescence intensity) ([1]; A549, day 7 of static culture, 0.003 μM, non-addition method): 48 % Control
- % control of RLU value (ATP measurement, luminescence intensity) ([1]; A549, day 7 of static culture, 0.003 μM, production method of present invention): 48 % Control
- % control of RLU value (ATP measurement, luminescence intensity) [1, 18]: 48 % Control
- % control of RLU value (ATP measurement, luminescence intensity) [1, 19]: 56 % Control
- % control of RLU value (ATP measurement, luminescence intensity) [1, 20]: 45 % Control
- % control of RLU value (ATP measurement, luminescence intensity) [1, 6]: 25 % Control
- % control of RLU value (ATP measurement, luminescence intensity) [1, 7]: 39 % Control
- % control of RLU value (ATP measurement, luminescence intensity) [1, 8]: 24 % Control

Molecule: human EGF: growth factor, manufactured by PEPROTECH
- % control of RLU value (ATP measurement, luminescence intensity) ([2]; Panc02,03, 3 ng/mL, medium composition of Example 13, on day 6 (head)): 108 % Control
- % control of RLU value (ATP measurement, luminescence intensity) ([2]; Panc02,03, 3 ng/mL, monolayer culture group, culture conditions on day 6 (head)): 105 % Control
- % control of RLU value (ATP measurement, luminescence intensity) ([2]; Panc02,03, 3 ng/mL, negative control group (medium free of deacylated gellan gum, low adhesion plate), on day 6 (head)): 117 % Control
- % control of RLU value (ATP measurement, luminescence intensity) ([2]; Panc02,03, 30 ng/mL, medium composition of Example 13, on day 6 (head)): 187 % Control
- % control of RLU value (ATP measurement, luminescence intensity) ([2]; Panc02,03, 30 ng/mL, monolayer culture group, culture conditions on day 6 (head)): 97 % Control
- % control of RLU value (ATP measurement, luminescence intensity) ([2]; Panc02,03, 30 ng/mL, negative control group (medium free of deacylated gellan gum, low adhesion plate), on day 6 (head)): 136 % Control
- efficacy in Panc02,03 cell proliferation test using the medium composition by the production method of the present invention (in words) ([2]; compared to a monolayer culture method and negative control group): strongly shown
